The conditions of data set [1]: cited from earlier work.
For data set [2] the following is noted: cited from earlier work. This is another data set of the same source.
Data set [3] in a line: Naltrexone HCl excipient compatibility (stressed stability) study, assay and impurities. Format: physicochemical. How it is done: An excipient compatibility study was designed and conducted to screen excipients for the low dose naltrexone HCl delayed release capsules for formulation development purposes. Based on the formulation approach of a multi-particulate system filled in capsule dosage form, the drug layered spheres were coated with a functional pH dependent polymer film.
The physical mixtures were prepared by weighing individual material into glass crimp vials and mixing using a vortex. The open samples were left open and closed samples were tightly closed using a crimper.

Where [4] appears, read: 40° C./ 75% RH - Closed - 2 weeks.
Setting [5] is: 40° C./ 75% RH - Open - 2 weeks.

SMILES strings stand for the structures. Structures can show the parent of a compound that is named as a salt. Where two headings read alike, the source gives them in different places.

Regarding `C=CCN1CC[C@]23c4c5ccc(O)c4OC2C(=O)CC[C@@]3(O)[C@H]1C5` (stereo partly drawn) [Naloxone hydrochloride, 17-allyl-4,5 α-epoxy, 3-14-dihydroxymorphinan-6-one hydrochloride], the solubility entry in data set [1] (in alcohol) was “slightly soluble”; in data set [1] (in ether and in chloroform), “practically insoluble”; in data set [1] (in water, in dilute acids, and in strong alkali) it was “soluble”.

For `C=CCN1CC[C@]23c4c5ccc(O)c4O[C@H]2C(=O)CC[C@@]3(O)[C@H]1C5` [naloxone], the half-life in data set [2] (in vivo) was 3 h. Moreover, the oral bioavailability in data set [2] (oral) is reported as around 3%.

Consider `O=C1CC[C@@]2(O)[C@H]3Cc4ccc(O)c5c4[C@@]2(CCN3CC2CC2)[C@H]1O5` [Naltrexone Control], for which the “Assay (%)” value is 99.3% in data set [3] (setting [4]), 101.5% in data set [3] (setting [5]) and 99.4% in data set [3] (Initial). For the same compound, the “Impurities (%)” value is on record as 0.6% in data set [3] (setting [4]), 0.6% in data set [3] (setting [5]) and 0.4% in data set [3] (Initial).

A word on the half-life: it is how long it takes for the measured level to halve.
